Test results: patent US9388143B2, “Polymorph of N-(3-{[(2Z)-3-[(2-chloro-5-methoxyphenyl)amino]quinoxalin-2(1H)-ylidene]sulfamoyl}phenyl)-2-methylalaninamide” (Sanofi, priority 2012, dated 2016)

What was measured:
Assay type in all cases: physicochemical
[1] = Differential scanning calorimetry, relative stability of polymorphs A and E by the rules of Burger; conditions: from DSC melting point and enthalpy of fusion
[2] = Stability of polymorph E in competition with polymorph A (slurry in solvent, X-ray powder diffraction)
Description: (§1) To verify the stability of polymorph E, trials were performed at the laboratory scale, by putting polymorph E in competition with compound (I) (polymorph A) and with the THF solvated form in mixtures of solvent.
Polymorph E was first put in competition with compound (I) (polymorph A) (mixture 50/50, w/w) in ethanol/THF 80/20% v/v. This stability test was performed at ambient temperature under magnetic stirring for 24 hours, then the solid was filtered, dried, then analyzed by X-ray powder diffraction. […] Similar experiments were performed in ethanol 100% at various concentrations.
Polymorph E stability also was tested as a suspension in 100% ethanol at room temperature, seeded with compound (I) (polymorph A).

[3] = Stability of polymorph E in competition with the THF solvated form (slurry in THF/ethanol)
Description: as §1
Polymorph E was also put in competition with the solvated form of compound (I) obtained in from THF. A mixture of the THF solvated form and polymorph E (50/50, w/w) was left under stirring for 24 hours in 40V of THF/ethanol (50/50, v/v) at room temperature.

[4] = under the competition conditions described

thermodynamic stability relationship between polymorphs A and E (monotropic) [1]: the more stable one | solid form found after competition ([2]; competition with polymorph A, ethanol 100%, various concentrations): Polymorph E was always obtained | solid form found by X-ray powder diffraction after competition ([2]; mixture 50/50 w/w with polymorph A, ethanol/THF 80/20% v/v, ambient temperature, magnetic stirring, 24 hours): Polymorph E was obtained | solid form found by X-ray powder diffraction after seeding ([2]; suspension in 100% ethanol, room temperature, seeded with polymorph A, 24 hours): only polymorph E | solid form present at the end of competition ([3]; mixture 50/50 w/w with THF solvated form, 40V THF/ethanol 50/50 v/v, room temperature, stirring 24 hours): only polymorph E was present | relative stability versus THF-solvated form [3, 4]: more stable than the THF-solvated form
SMILES: COc1ccc(Cl)c(Nc2nc3ccccc3nc2NS(=O)(=O)c2cccc(NC(=O)C(C)(C)N)c2)c1 [Polymorph E, N-(3-{[(2Z)-3-[(2-chloro-5-methoxyphenyl)amino]quinoxalin-2(1H)-ylidene]sulfamoyl}phenyl)-2-methylalaninamide]
relative stability versus polymorph A [2, 4]: more stable than the polymorph A of compound (I)
